# Reference: patent US20170348258A1, “3-Amino Benzamide Derivative Serving As B-Lactam Auxiliary Antibiotic, Preparation Method and Use Thereof” (THE HONG KONG POLYTECHNIC UNIVERSITY, priority 2014, published 2017)
# Experiments:
# B. subtilis 168 = assay: Antibacterial susceptibility test (MIC, microbroth dilution); assay type: cell-based; settings: Bacillus subtilis, 168; 18 hours at 37° C., >90% inhibition of bacterial growth; read-out: MIC, BS 168
# From the text: (§1) The bacterial strains used in microbial susceptibility test were E. coli, S. aureus 29213 and B. subtilis 168. E. coli and S. aureus 29213 were obtained from the laboratory of the Hong Kong Polytechnic University. B. subtilis 168 was purchased from American Type Culture Collection (USA). The mammalian cell lines L929 (mouse peritoneal fibroblast), LCC6 (a wild type breast cancer cell line), LCC6MDR (P-gp over-expressed breast cancer cell line) were stocks in our department. Nutrient Agar, tryptone and yeast extract were purchased from Oxoid Limited (Nepean, Ontario, Canada). Luria-Bertani (LB) medium was prepared from 2 g tryptone, 1 g yeast extract, and 2 g sodium chloride in 200 ml deionized water and sterilized. Müller-Hinton broth (MHB), cation-adjusted Müller-Hinton broth (MHB) and trypticase soy broth (TSB) for microbial susceptibility test were purchased from Becton, Dickinson and Company (New Jersey, USA). A microplate reader (Bio-Rad Laboratories Model 680) is used to measure bacterial growth and cytotoxicity. An Olympus FSX100® Bio Imaging Navigator Microscope was used to observe the morphology of B. subtilis cell.
# (§2) The minimum inhibitory concentration (MIC) of each compound was determined using microbroth dilution method according to the National Committee for Clinical Laboratory Standards (CLSI) guidelines. All Compounds were dissolved in DMSO and diluted in a serial two-fold manner. A single colony of bacterial strain on a TSB agar plate was inoculated in 5 mL MHB or CA-MHB. The bacterial cells were incubated at 37° C. until the optimal density (OD600) of the growing cells reached 1.0. The cells were then diluted to a final concentration of approximately 5×10^5 CFU/mL in a serial two-fold manner in a 96-well microtiter plate (Iwaki, Japan). Compound 3 and PC190723 were used as positive controls. […] Table 1 below summarizes the MIC of all synthesized compounds.
# E. coli = assay: as above; assay type: cell-based; settings: Escherichia coli; 18 hours at 37° C., >90% inhibition of bacterial growth
# From the text: as §1, §2
# S. aureus 29213 = assay: as above; assay type: cell-based; settings: Staphylococcus aureus, 29213; 18 hours at 37° C., >90% inhibition of bacterial growth
# From the text: as §1, §2
# [1] = Cytotoxicity test (MTS/PMS); assay type: cell-based; settings: human, LCC6MDR cells (P-gp over-expressed breast cancer cell line); 3 days at 37° C.
# From the text: as §1, with “cell. The cell lines used in cytotoxicity test were stocks in our department. In this assay, a mouse fibroblast cell line (L929), a wild type breast cancer cell line (LCC6) and a P-gp-over-expressed breast cancer cell line (LCC6MDR) were mixed with compounds of various concentrations and made up to a final volume of 100 μL in 96-well plates. The cells were then incubated at 37° C. for 3 days. […] The MTS/PMS mixture (10 μL) was added into each well, and the plate was incubated at 37° C. for 2 hours. The absorbance at 490 nm was then measured with a microplate absorbance reader (Bio-Rad). The IC50 values were calculated using GraphPad (Prism 4.0). The selective index of each compound was calculated from the ratio between the toxicity level of L929 and the MIC value of S. aureus 29213. […] Two promising compounds […] were chosen to test on three mammalian cell lines.” for “cell.”
# [2] = tested on: L929 (mouse fibroblast cell line); assay: Cytotoxicity test (MTS/PMS); assay type: cell-based; settings: L929, 72 h, 3 days at 37° C.
# From the text: as §1, with “cell. The cell lines used in cytotoxicity test were stocks in our department. In this assay, a mouse fibroblast cell line (L929), a wild type breast cancer cell line (LCC6) and a P-gp-over-expressed breast cancer cell line (LCC6MDR) were mixed with compounds of various concentrations and made up to a final volume of 100 μL in 96-well plates. The cells were then incubated at 37° C. for 3 days. […] The MTS/PMS mixture (10 μL) was added into each well, and the plate was incubated at 37° C. for 2 hours. The absorbance at 490 nm was then measured with a microplate absorbance reader (Bio-Rad). The IC50 values were calculated using GraphPad (Prism 4.0). The selective index of each compound was calculated from the ratio between the toxicity level of L929 and the MIC value of S. aureus 29213. […] Two promising compounds […] were chosen to test on three mammalian cell lines.” for “cell.”
# [3] = tested on: LCC6 (wild type breast cancer cell line); assay: Cytotoxicity test (MTS/PMS); assay type: cell-based; settings: LCC-6, 72 h; 3 days at 37° C.
# From the text: as §1, with “cell. The cell lines used in cytotoxicity test were stocks in our department. In this assay, a mouse fibroblast cell line (L929), a wild type breast cancer cell line (LCC6) and a P-gp-over-expressed breast cancer cell line (LCC6MDR) were mixed with compounds of various concentrations and made up to a final volume of 100 μL in 96-well plates. The cells were then incubated at 37° C. for 3 days. […] The MTS/PMS mixture (10 μL) was added into each well, and the plate was incubated at 37° C. for 2 hours. The absorbance at 490 nm was then measured with a microplate absorbance reader (Bio-Rad). The IC50 values were calculated using GraphPad (Prism 4.0). The selective index of each compound was calculated from the ratio between the toxicity level of L929 and the MIC value of S. aureus 29213. […] Two promising compounds […] were chosen to test on three mammalian cell lines.” for “cell.”
# B. subtilis 168 cells = assay: Effects on the morphology of B. subtilis cells; assay type: cell-based; settings: for average cell length of B. subtilis: compound at half of MIC (1.56 μM F332, 0.78 μM F361), untreated 3.5±0.7 μm; for average cell length of B. subtilis / lengthening of cell length of B. subtilis versus untreated: 4 hours; for lengthening of cell length of B. subtilis versus untreated: compound at half of MIC; for filamentation of B. subtilis 168 cells: sub-lethal concentrations
# Protocol: The log-phase culture of B. subtilis was tested with the two compounds with a final concentration of half of MIC value. A 1% DMSO solution was used as the control.
# MRSA strain USA300#2960 = assay: Fractional Inhibitory Concentration Index (FICI) determination; assay type: cell-based, S. aureus
# Protocol: The bacterial strains used in this study were clinically isolated MRSA strains USA300#757 and #2960 which were obtained from our laboratory. Determination of the Fractional Inhibitory Concentration Index (FICI) was adopted by the Müller-Hinton broth (MHB) dilution method as previously described. Twelve serial two-fold dilutions of PC190723, F332 and F361 were prepared in the 96-well microplate with concentration ranging from 512 to 0.25 μg/mL. A series of two-fold dilutions of ampicillin, cloxacillin and cefuroxime were also prepared following the same procedure. Lastly, the compounds and the β-lactams were mixed at a 1:1 ratio and subjected to two-fold dilution as described previously. Each microplate well contained 100 μL of MHB supplemented with compounds alone, β-lactams alone or the mixture of compounds and β-lactams. Overnight cultures of S. aureus in the Müller-Hinton broth was diluted to OD595 of 0.08-0.1 in saline and added in each of the microplate well. The plates were incubated at 37° C. for 20 h. All tests were performed in duplicate and the inhibition of bacterial growth was determined by visualization. The FICI of compounds and β-lactams were calculated as followed: FICI=(MIC of combination of compound and β-lactam/MIC of compound alone)+(MIC of combination of compound and β-lactam/MIC of β-lactam alone).
# MRSA strain 2516 = assay: FICI of F332 with antibiotics; assay type: cell-based, S. aureus
Structure (SMILES),MIC (B. subtilis 168) [µM],MIC (E. coli) [µM],MIC (S. aureus 29213) [µM],IC50 at 3 days [1] [µM],IC50 [2] [µM],IC50 [3] [µM],average cell length of B. subtilis (B. subtilis 168 cells) [μm],lengthening of cell length of B. subtilis versus untreated (B. subtilis 168 cells),filamentation of B. subtilis 168 cells (B. subtilis 168 cells),FICI with Ampicillin (MRSA strain USA300#2960),FICI with Cefotaxime (MRSA strain USA300#2960),FICI with Cefuroxime (MRSA strain USA300#2960),FICI with Cloxacillin (MRSA strain USA300#2960),FICI with Meropenem (MRSA strain USA300#2960),FICI of F332 combined with Amoxicillin (MRSA strain 2516),FICI of F332 combined with Cefuroxime (MRSA strain 2516),FICI of F332 combined with Cloxacillin (MRSA strain 2516),FICI of F332 combined with Meropenem (MRSA strain 2516),FICI of F332 combined with Meticillin (MRSA strain 2516)
"CCCCCCCCCNc1ccc(F)c(C(N)=O)c1F [Compound F332, 2,6-difluoro-3-(nonylamino)benzamide]",3.13,> 100,12.5,> 100,> 100,78,11.7±4.5,three-fold lengthening,cause filamentation,0.28,0.38,0.38,1.02,0.28,0.38,0.07,0.19,0.38,0.19
"CCCCCCCCCN(C)c1ccc(F)c(C(N)=O)c1F [Compound F361, 2,6-difluoro-3-(methyl(nonyl)amino)benzamide]",1.57,> 100,3.13,52,60,60,21.1±1.8,six-fold lengthening,cause filamentation,–,1.00,–,–,0.28,–,–,–,–,–
